The values below come from US11680218B2, “Biodegradable lubricant with tailored hydrolytic stability and improved thermal stability through alkoxylation of glycerol” (Tetramer Technologies, LLC, priority 2018, dated 2023).

The nature of series [1]: Differential scanning calorimetry (melt enthalpy, undercooling, percent solids index). It counts as physicochemical. To be noted: DSC, heating from solid, 5° C./min. From the text:
It is known in the art that alkoxylation has the potential to decrease the pour point of an ester. However, the current disclosure has observed a surprising decrease in the melting enthalpy and a marked reduction in the degree of undercooling. The degree of undercooling for a base oil indicates the increase in temperature required to fully melt an oil after crystallization has started. The degree of undercooling for the purpose of this disclosure is described as the difference between the temperature at which a material is fully melted on heating and the temperature at which the material begins to crystallize on cooling [Tmelt−Tonset=Undercool] as determined by differential scanning calorimetry (DSC) with a heating and cooling rate of 5° C./min. “Undercooling” and “degree of undercooling” can be used synonymously.
Oils with a lower undercooling require a smaller increase in temperature after crystallization to melt the oil and erase the oil “memory.” Shelby and Miller teach the concept of oil “memory” as a result of gels or crystals not fully dissociating even when above the melt point, so that on a second cooling cycle, gelation or crystal growth occurs much more quickly and at higher temperatures. If two oils have the same crystallization onset temperature, the oil with the lower undercooling will fully melt at a lower temperature and erase the oil “memory”. […] The effect of this is that glycerol esters and polyol esters must be heated substantially above the onset of crystallization in order to melt the oil before use. […] At 5° C. above the onset of crystallization temperature, 100% of Ex. 92 (glycerol ester) is solid; 31% of Ex 93 (PG3 ester) is solid; 18% of Ex. 94 (PG10 ester) is solid; and 81% of Ex 90 (TMP ester) is solid.
Examples 90, 92-94: Reductions in the enthalpy of melting are observed for propoxylated glycerol esters and TMP esters relative to the glycerol ester, see FIG. 19, Table 5, FIG. 20, Table 6 and FIG. 21, Table 7. […] DSC analysis was conducted within the temperature range −80° C. to 40° C. with cyclic cooling and heating rates of 5° C./min. The DSC melt thermograms for each material were integrated as a function of temperature and normalized to the overall melt enthalpy to generate a percent solids index that is the basis for the data in the Solids @ Onset+T columns. The data under Solids @ Onset+5 and +10° C. are indicative of the percent of solids in a base oil when heating from a fully solid or crystalline state. […] Both glycerol and TMP esters show higher degrees of undercooling and higher melt enthalpies compared to analogous propoxylated glycerol esters, see FIG. 20, Table 6.
(In DSC, transitions show as peaks or steps in heat flow.)

For series [2] the following is noted: literature value, cited from earlier work.

As to `CCCCCCCCCCCC(=O)OCC(CC)(COC(=O)CCCCCCCCCCC)COC(=O)CCCCCCCCCCC` [Example 90], in series [1], the “percent solid at 5° C. above the onset of crystallization temperature” value amounted to 81% and the “percent solid at 10° C. above the crystallization onset temperature” value is given as “significant amounts of crystalline solids”. Besides, the “percent solid at 10° C. above the crystallization onset temperature” value in series [1] (listed as Ex 90) was 46%.
As for `CCCCCCCCCCCC(=O)OCC(COC(=O)CCCCCCCCCCC)OC(=O)CCCCCCCCCCC` [Example 92], the “percent solid at 5° C. above the onset of crystallization temperature” value in series [1] was 100%. Also, the results for the “percent solid at 10° C. above the crystallization onset temperature” value in series [1] and in series [1] (listed as Ex. 92) were “significant amounts of crystalline solids” and “not melted at all”, respectively.
Regarding `CCCCCCCC/C=C\CCCCCCCC(=O)OCC(CC)(COC(=O)CCCCCCC/C=C\CCCCCCCC)COC(=O)CCCCCCC/C=C\CCCCCCCC` [TMP trioleates], the “Oxidative Onset Temperature (OOT) after formulation” value in series [2] (formulated) is “up to 206 °C”. In addition, the “Oxidative Onset Temperature (OOT)” value in series [2] (unformulated) was 156 °C.
